Source: paper PMC9598282 (Antibiotics, 2022)
Values joined by “and” are separate entries in the source; they are usually repeats but may differ in a detail not shown here. Equal values may be shown once. Read-outs that look alike come from different tables or passages of the source.

How the values were obtained:
P. aeruginosa PA 107092 [1] = experiment: Time-kill assay; format: cell-based, Pseudomonas aeruginosa; settings: monotherapy, 8 μg/mL
Experimental: To study the time-dependent killing effects of the drug combinations, the time-kill kinetics were assessed. The time-kill assay was performed following the 8 μM (2 μg/mL) concentration of avibactam used in the checkerboard assay. […] This concentration also corresponds to the susceptibility breakpoint of both β-lactams.
For the preparation of the bacterial solution, an overnight grown culture was diluted in 0.85% saline solution and adjusted to 0.5 McFarland turbidity. […] The culture tubes were incubated at 37 °C, shaking at 250 rpm. At the appointed time intervals, a 100-μL aliquot was taken from each tube, serially diluted in phosphate-buffered saline (PBS) and plated on LB agar plates. The plates were incubated at 37 °C, and bacterial colonies were counted after 18 h. The bactericidal or bacteriostatic activity is determined based on the decrease in CFU over the time period. Bactericidal activity corresponds to ≥3 log10 reduction in CFU/mL, while bacteriostatic activity corresponds to <3 log10 reduction in CFU/mL.

P. aeruginosa PAO1 = experiment: microbe, parasite or virus in culture; format: cell-based, Pseudomonas aeruginosa; settings: for MIC: Pseudomonas aeruginosa, PAO1, 18 h, agent alone, one value per checkerboard plate, read-out: MIC alone
Experimental: (§1) The adjuvant properties of the guanidinylated polymyxins were evaluated using the checkerboard assay as previously described. The bacterial solution was prepared as described in the antimicrobial susceptibility assay. The antibiotic of interest and the adjuvant were serially diluted two-fold along the x- and y-axis on a 96-well plate, respectively, resulting in varying concentrations of both agents in each well. Equal volumes of bacterial solution were added to the designated wells. The well consisting of bacterial solution served as the positive control, while the wells containing only media served as the negative control. The plate was then incubated at 37 °C for 18 h. After incubation, an Emax Plus microplate reader (Molecular Devices, Union City, CA, USA) was used to measure the OD at a wavelength of 590 nm to confirm the turbidity. The fractional inhibitory concentration (FIC) index was then determined to establish the relationship between the antibiotic and adjuvant. The FIC index corresponds to the sum of the FICs of the antibiotic and adjuvant. The FIC of each agent is calculated by dividing its MIC when it is used in combination by its MIC when used alone. FIC indices ≤0.5, 0.5 < x ≤ 4 and >4 indicate synergy, additivity and antagonism, respectively.

P. aeruginosa 114228 = experiment: microbe, parasite or virus in culture; format: cell-based, Pseudomonas aeruginosa; settings: one value per checkerboard plate; for MIC: Pseudomonas aeruginosa, 114228, agent alone
Experimental: as §1

P. aeruginosa P259-96918 = experiment: Checkerboard assay; format: cell-based, Pseudomonas aeruginosa; settings: Pseudomonas aeruginosa, P25996918; agent alone, one value per checkerboard plate
Experimental: as §1

[2] = tested on: P. aeruginosa P262-101856; experiment: Checkerboard assay; format: cell-based, Pseudomonas aeruginosa; settings: one value per checkerboard plate; for MIC: Pseudomonas aeruginosa, P262101856, agent alone
Experimental: as §1

[3] = tested on: P. aeruginosa P264-104354; experiment: Checkerboard assay; format: cell-based, Pseudomonas aeruginosa; settings: one value per checkerboard plate
Experimental: as §1

P. aeruginosa 101243 = experiment: Checkerboard assay; format: cell-based, Pseudomonas aeruginosa; settings: one value per checkerboard plate; for MIC: Pseudomonas aeruginosa, 101243, agent alone
Experimental: as §1

E. coli 107115 = experiment: microbe, parasite or virus in culture; format: cell-based, Escherichia coli; settings: Escherichia coli, 107115, agent alone, one value per checkerboard plate
Experimental: as §1

A. baumannii AB027 = experiment: microbe, parasite or virus in culture; format: cell-based, Acinetobacter baumannii; settings: one value per checkerboard plate; for MIC: Acinetobacter baumannii, AB027, agent alone
Experimental: as §1

A. baumannii ATCC 17978 = experiment: microbe, parasite or virus in culture; format: cell-based, Acinetobacter baumannii; settings: for MIC: Acinetobacter baumannii, ATCC17978, 18 h, agent alone, one value per checkerboard plate, read-out: MIC alone
Experimental: as §1

A. baumannii 92247 = experiment: microbe, parasite or virus in culture; format: cell-based, Acinetobacter baumannii; settings: one value per checkerboard plate; for MIC: Acinetobacter baumannii, 92247, agent alone
Experimental: as §1

A. baumannii AB031 = experiment: Checkerboard assay; format: cell-based, Acinetobacter baumannii; settings: Acinetobacter baumannii, AB031, agent alone, one value per checkerboard plate
Experimental: as §1

P. aeruginosa PA 88949 = format: cell-based, Pseudomonas aeruginosa; settings: one value per checkerboard plate
Experimental: as §1

P. aeruginosa PA 107092 [4] = format: cell-based, Pseudomonas aeruginosa
Experimental: as §1

P. aeruginosa PA 109084 = format: cell-based, Pseudomonas aeruginosa
Experimental: as §1

P. aeruginosa PA 86052 = format: cell-based, Pseudomonas aeruginosa; settings: one value per checkerboard plate
Experimental: as §1

E. coli ATCC 25922 = experiment: microbe, parasite or virus in culture; format: cell-based, Escherichia coli; set-up: key to FIC index antibiotic + GCol / FIC index antibiotic + GPMB: sum of FICs; ≤0.5 synergy, 0.5–4 additivity, >4 antagonism; settings: for MIC: Escherichia coli, ATCC25922, 18 h, read-out: MIC alone
Experimental: as §1

E. cloacae 121187 = experiment: microbe, parasite or virus in culture; format: cell-based, Enterobacter cloacae; settings: one value per checkerboard plate
Experimental: as §1

E. coli 94393 = experiment: Checkerboard assay; format: cell-based, Escherichia coli; settings: Escherichia coli, 94393, agent alone, one value per checkerboard plate
Experimental: as §1

E. coli 94474 = experiment: Checkerboard assay; format: cell-based, Escherichia coli; settings: Escherichia coli, 94474, agent alone, one value per checkerboard plate
Experimental: as §1

A. baumannii 110193 = experiment: microbe, parasite or virus in culture; format: cell-based, Acinetobacter baumannii; settings: one value per checkerboard plate
Experimental: as §1

K. pneumoniae 113250 = experiment: Checkerboard assay; format: cell-based, Klebsiella pneumoniae; settings: one value per checkerboard plate
Experimental: as §1

K. pneumoniae 113254 = experiment: Checkerboard assay; format: cell-based, Klebsiella pneumoniae; settings: Klebsiella pneumoniae, 113254, agent alone, one value per checkerboard plate
Experimental: as §1

[5] = one value per checkerboard plate
[6] = agent alone, one value per checkerboard plate

Absolute MIC of antibiotic at 4 μg/mL GCol (P. aeruginosa PAO1) [µg/mL]	Absolute MIC of antibiotic at 4 μg/mL GPMB (P. aeruginosa PAO1) [µg/mL]	MIC (P. aeruginosa PAO1) [µg/mL]	MIC (P. aeruginosa 114228) [µg/mL]	MIC [2] [µg/mL]	MIC (P. aeruginosa 101243) [µg/mL]	MIC (E. coli 107115) [µg/mL]	MIC (A. baumannii AB027) [µg/mL]	Absolute MIC of antibiotic at 2 μg/mL GCol (A. baumannii ATCC 17978) [µg/mL]	Absolute MIC of antibiotic at 2 μg/mL GPMB (A. baumannii ATCC 17978) [µg/mL]	MIC (A. baumannii ATCC 17978) [µg/mL]	MIC (A. baumannii 92247) [µg/mL]	MIC (A. baumannii AB031) [µg/mL]	Absolute MIC of antibiotic at 2 μg/mL GCol (E. coli ATCC 25922) [µg/mL]	Absolute MIC of antibiotic at 2 μg/mL GPMB (E. coli ATCC 25922) [µg/mL]	MIC (E. coli ATCC 25922; [6]) [µg/mL]	Compound	FIC index antibiotic + GCol (E. coli ATCC 25922)	further results
0.5	0.25	4	16	32	16	1020	1020	64	32	64	128	64	0.031	0.016	0.25	C[C@H]1[C@H](NC(=O)/C(=N\OC(C)(C)C(=O)O)c2csc(N)n2)C(=O)N1S(=O)(=O)O [Aztreonam]	0.188	log10 increase (bacterial growth) over 24 h (P. aeruginosa PA 107092 [1]): 2 to 3 log10; MIC alone (P. aeruginosa 114228; agent alone): 8 µg/mL; MIC (P. aeruginosa P259-96918): 32 µg/mL; MIC alone ([2]; agent alone): 64 µg/mL; MIC ([3]; Pseudomonas aeruginosa, P264104354, agent alone): 64 µg/mL; MIC alone ([3]; agent alone): 32 µg/mL; MIC alone (P. aeruginosa 101243; agent alone): 32 µg/mL; MIC alone (A. baumannii 92247; agent alone): 256 µg/mL; MIC antibiotic alone (P. aeruginosa PA 88949): 16 µg/mL; MIC antibiotic alone (P. aeruginosa PA 107092 [4]; [5]): 32 µg/mL and 64 µg/mL; MIC antibiotic alone (P. aeruginosa PA 107092 [4]; plates with 8 μM avibactam): 16 µg/mL and 8 µg/mL; MIC antibiotic alone (P. aeruginosa PA 109084; [5]): 64 µg/mL; MIC antibiotic alone (P. aeruginosa PA 109084; plates with 8 μM avibactam): 8 µg/mL; MIC antibiotic alone (P. aeruginosa PA 86052): 64 µg/mL and 32 µg/mL
16	2		64	2050	1020	2050	8	32	0.5	32	8	16	0.25		32	CC[C@H]1OC(=O)[C@H](C)[C@@H](O[C@H]2C[C@@](C)(OC)[C@@H](O)[C@H](C)O2)[C@H](C)[C@@H](O[C@@H]2O[C@H](C)C[C@H](N(C)C)[C@H]2O)[C@](C)(O)C[C@@H](C)C(=O)[C@H](C)[C@@H](O)[C@]1(C)O [Erythromycin]		MIC (E. cloacae 121187; Enterobacter cloacae, 121187, agent alone): 1020 µg/mL; MIC alone (E. cloacae 121187; agent alone): 512 µg/mL; MIC (E. coli 94393): 64 µg/mL; MIC (E. coli 94474): 64 µg/mL; MIC alone (A. baumannii AB027; agent alone): 4 µg/mL; MIC (A. baumannii 110193; Acinetobacter baumannii, 110193, agent alone): 2 µg/mL; MIC alone (A. baumannii 110193; agent alone): 4 µg/mL; MIC (K. pneumoniae 113250; Klebsiella pneumoniae, 113250, agent alone): 32 µg/mL; MIC alone (K. pneumoniae 113250; agent alone): 64 µg/mL; MIC (K. pneumoniae 113254): 64 µg/mL
128	4	1020						0.5	0.063	8			0.125	0.25	128	CO[C@@H]1[C@@H](OC(N)=O)[C@@H](O)[C@H](Oc2ccc3c(O)c(NC(=O)c4ccc(O)c(CC=C(C)C)c4)c(=O)oc3c2C)OC1(C)C [Novobiocin]	0.02	Fold-potentiation of antibiotic (P. aeruginosa PAO1; at 4 μg/mL GCol): 8; Fold-potentiation of antibiotic (P. aeruginosa PAO1; at 4 μg/mL GPMB): 256; FIC index antibiotic + GPMB (A. baumannii ATCC 17978): 0.07; Fold-potentiation of antibiotic (A. baumannii ATCC 17978; at 2 μg/mL GCol): 16; Fold-potentiation of antibiotic (A. baumannii ATCC 17978; at 2 μg/mL GPMB): 256; FIC index antibiotic + GPMB (E. coli ATCC 25922): 0.012; MIC alone (E. coli ATCC 25922; [6]): 64 µg/mL; Fold-potentiation of antibiotic (E. coli ATCC 25922; at 2 μg/mL GCol): 1024; Fold-potentiation of antibiotic (E. coli ATCC 25922; at 2 μg/mL GPMB): 256
